Measurements published in patent publication US11492321B2, “Method for producing capped 3-hydroxycarboxylic acids and their salts and esters” (IOI Oleo GmbH, priority 2019, dated 2022).

Columns and labels:
[1] = Cleavage experiments in FaSSGF medium simulating the stomach; assay type: in vitro ADME; settings: in the presence or absence of pancreatin
Description: (§1) By means of cleavage experiments it is shown that reaction products prepared according to the invention or mixtures thereof can be cleaved in the human gastrointestinal tract. The starting mixture used is, on the one hand, a 3-acetoxybutyric acid ethyl ester obtained and purified by the process according to the invention as described hereinabove and, on the other hand, in each case the 3-BHB ethyl esters capped in the 3-position with the carboxylic acid anhydride (heptanoic acid anhydride, lauric acid anhydride or oleic acid anhydride) obtained and purified by the process according to the invention as described hereinabove.
(§2) For the cleavage experiments under near-body conditions two media are investigated: • FaSSGF, which simulates the stomach • FaSSIF, which simulates the intestinal tract
(§3) Both media are from the company Biorelevant®, Ltd. in Great Britain. In addition, in some experiments porcine pancreas is added (Panzytrat® 40,000, Fa. Allergan).
(§4) Under FaSSIF conditions, a lower conversion using Panzytrat® takes place.

[2] = Cleavage experiments in FaSSIF medium simulating the intestinal tract; assay type: in vitro ADME; settings: in the presence or absence of pancreatin
Description: as §1, §2, §3, §4

[3] = even if several grams are taken; patients; cited from earlier work

Row | SMILES | cleavage in gastric medium [1] | cleavage in intestinal medium [2] | duration of ketosis [3]
1 | CCOC(=O)CC(C)OC(C)=O (stereo not drawn) [3-acetoxybutyric acid ethyl ester] | cleavage to 3-BHB in free form | cleavage to 3-BHB in free form | 
2 | CC(O)CC(=O)O (stereo not drawn) [3-hydroxybutyric acid] |  |  | three to four
